Like-named read-outs stand apart in the source and are kept apart here.
How the values were obtained:
Format in all cases: biochemical
aggrecanase-1 = biological target: T1, aggrecanase-1 (Homo sapiens, UniProt O75173); experiment: Aggrecanase-1 inhibitory action (Particle Assay, GAG release from aggrecan-containing polyacrylamide particles)
T1 sequence (O75173 213-837): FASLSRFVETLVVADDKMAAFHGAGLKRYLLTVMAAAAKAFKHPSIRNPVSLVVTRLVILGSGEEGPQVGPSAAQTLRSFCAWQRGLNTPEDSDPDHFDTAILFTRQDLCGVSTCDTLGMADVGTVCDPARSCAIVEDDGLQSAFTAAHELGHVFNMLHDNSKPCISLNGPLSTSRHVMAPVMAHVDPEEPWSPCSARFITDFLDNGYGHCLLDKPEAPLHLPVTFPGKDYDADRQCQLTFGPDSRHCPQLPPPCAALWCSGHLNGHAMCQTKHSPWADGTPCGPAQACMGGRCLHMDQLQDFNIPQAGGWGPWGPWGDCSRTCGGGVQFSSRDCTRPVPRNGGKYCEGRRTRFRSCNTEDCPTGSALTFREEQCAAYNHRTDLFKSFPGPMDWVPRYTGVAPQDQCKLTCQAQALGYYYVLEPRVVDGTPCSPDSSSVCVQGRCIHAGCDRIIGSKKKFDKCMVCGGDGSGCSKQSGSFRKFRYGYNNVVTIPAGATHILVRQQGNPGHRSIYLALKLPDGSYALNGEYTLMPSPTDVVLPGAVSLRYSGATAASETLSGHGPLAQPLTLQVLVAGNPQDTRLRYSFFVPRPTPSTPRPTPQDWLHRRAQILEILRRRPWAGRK
How it was run: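 Enzyme and compound incubated with aggrecan-containing polyacrylamide particles in Tris-HCl buffer at 37° C for 15 h. Released GAG in supernatant measured with 1,9-dimethylmethylene blue at 595 nm against chondroitin sulfate standard; % inhibition from enzyme-free and inhibitor-free wells, reported as TC50 (μM).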

Recombinant Human MMP-13 = biological target: T2, Recombinant Human MMP-13 (Homo sapiens, UniProt P45452); experiment: MMP-13 inhibitory activity (MMP-13 specific fluorescent substrate with quencher)
T2 construct: purchased R&D systems 511-MM
How it was run: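 Recombinant human MMP-13 with test compound, reaction started with quenched fluorogenic peptide 7-MCA-Pro-CHA-Gly-NVal-His-Ala-DPA in Tris-HCl buffer, 1 h at 25 °C, stopped with acetic acid. Fluorescence at Ex 325/Em 405 nm; % inhibition versus enzyme-free and inhibitor-free wells, reported as IC50 (μM).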

MMP-1 = biological target: T3, MMP-1 (Homo sapiens, UniProt P03956); experiment: MMP-1 inhibitory action (Type I collagen Activity Measurement kit, FITC-labeled collagen type I)
T3 sequence (P03956 100-469): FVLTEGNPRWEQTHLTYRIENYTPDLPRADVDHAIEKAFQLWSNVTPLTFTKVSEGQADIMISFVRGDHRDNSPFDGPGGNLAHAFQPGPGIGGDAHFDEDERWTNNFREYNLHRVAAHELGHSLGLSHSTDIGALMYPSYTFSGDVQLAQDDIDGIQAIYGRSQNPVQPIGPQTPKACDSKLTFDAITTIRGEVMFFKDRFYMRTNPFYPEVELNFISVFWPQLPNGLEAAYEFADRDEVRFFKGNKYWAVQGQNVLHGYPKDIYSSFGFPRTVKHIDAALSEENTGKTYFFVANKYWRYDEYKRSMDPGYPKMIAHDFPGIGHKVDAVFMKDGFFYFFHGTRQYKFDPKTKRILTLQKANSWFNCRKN

[1] = Experimental Example 1, read-out: IC50 AG1
[2] = Experimental Example 3, read-out: IC50 MMP13
[3] = Experimental Example 2, read-out: IC50 MMP1
[4] = aggrecanase-1 inhibitory action, read-out: IC50 AG1 (Experimental Example 1)
[5] = Recombinant Human MMP-13, fluorescent substrate, 25° C. for 1 h, read-out: IC50 MMP13 (Experimental Example 3)
[6] = MMP-1 inhibitory action, FITC-labeled collagen type I, 37° C. for 3 hr, read-out: IC50 MMP1 (Experimental Example 2)

Compound | IC50 (aggrecanase-1; [1]) [µM] | IC50 (Recombinant Human MMP-13; [2]) [µM] | IC50 (MMP-1; [3]) [µM] | IC50 (aggrecanase-1; [4]) [µM] | IC50 (Recombinant Human MMP-13; [5]) [µM] | IC50 (MMP-1; [6]) [µM]
CC1[C@H](c2ccccc2)[C@]1(NS(=O)(=O)N1CCCN(c2ccc(F)cn2)CC1)C(=O)O (stereo partly drawn) [Example 2-462] | < 1 | ≥ 1 | ≥ 1 | – | – | –
Cc1nc2cc(N3CCN(S(=O)(=O)N[C@@]4(C(=O)O)C(C)[C@@H]4c4ccccc4)CC3)ccc2s1 (stereo partly drawn) [Example 2-483] | ≥ 1 | ≥ 1 | ≥ 10 | – | – | –
COCCN(C)C(=O)c1ccc(C2(CCCOC(C)=O)CC2(NS(=O)(=O)c2ccc(-c3cc(C(F)(F)F)on3)s2)C(=O)O)cc1 (stereo not drawn) [Example 2-271] | ≥ 1 | < 1 | ≥ 10 | – | – | –
CC1[C@H](c2ccccc2)[C@]1(NS(=O)(=O)c1ccc(-n2cc(Cl)cn2)nc1)C(=O)O (stereo partly drawn) [Example 2-557] | < 1 | < 0.1 | ≥ 1 | – | – | –
Cc1cc(-c2ccc(S(=O)(=O)NC3(C(=O)O)C4CCCc5ccccc5C43)s2)no1 (stereo not drawn) [Example 2-375] | < 0.1 | < 0.1 | < 1 | – | – | –
COc1cccc(C2(C)CC2(NS(=O)(=O)c2ccc(-c3cc(C(F)(F)F)on3)s2)C(=O)O)c1 (stereo not drawn) [Example 2-610] | < 0.1 | ≥ 1 | < 1 | – | – | –
O=C1O[C@@H]([C@H]2C[C@@]2(NS(=O)(=O)c2ccc(-c3ccc(Cl)cc3)s2)C(=O)O)CN1Cc1ccccc1 [Example 2-139] | – | – | – | ≥ 1 | ≥ 1 | ≥ 10
O=C(CCc1cccc(C2CC2(NS(=O)(=O)c2ccc(-c3ccc(Cl)cc3)s2)C(=O)O)c1)N1CCC(O)CC1 (stereo not drawn) [Example 2-224] | – | – | – | < 0.1 | < 0.1 | ≥ 1
COCCN(C)CC1(c2ccccc2)CC1(NS(=O)(=O)c1ccc(-c2cc(C(F)(F)F)on2)s1)C(=O)O (stereo not drawn) [Example 2-336] | ≥ 1 | ≥ 1 | ≥ 10 | – | – | –
Cc1ncc(-c2ccc(S(=O)(=O)N[C@@]3(C(=O)O)C[C@@H]3c3ccccc3)s2)s1 [Example 2-55] | – | – | – | ≥ 1 | ≥ 10 | ≥ 10
O=C(OCCCc1ccccc1C1CC1(NS(=O)(=O)c1ccc(-c2cc(C(F)(F)F)on2)s1)C(=O)O)N1CC[C@@H](O)C1 (stereo partly drawn) [Example 2-255] | – | – | – | < 0.1 | < 0.1 | ≥ 1
CC1[C@H](c2ccccc2)[C@]1(NS(=O)(=O)N1CCN(c2ccc(Cl)cc2)C(=O)C1)C(=O)O (stereo partly drawn) [Example 2-502] | ≥ 1 | ≥ 1 | ≥ 1 | – | – | –
C[C@]1(c2ccccc2)C[C@@]1(NS(=O)(=O)c1ccc(-c2cccc(C(=O)O)c2)s1)C(=O)O [Example 2-479] | ≥ 1 | ≥ 10 | ≥ 10 | – | – | –
CC1[C@H](c2ccccc2)[C@]1(NS(=O)(=O)c1ccc(-c2cn3ccccc3n2)s1)C(=O)O (stereo partly drawn) [Example 2-570] | < 1 | < 0.1 | ≥ 1 | – | – | –
CC1C(c2ccccc2)C1(NS(=O)(=O)c1ccc(-c2cccc(CN3CCOCC3)c2)s1)C(=O)O (stereo not drawn) [Example 2-540] | ≥ 1 | < 1 | ≥ 1 | – | – | –
O=C(CSCC1(c2ccccc2)CC1(NS(=O)(=O)c1ccc(-c2ccc(Cl)cc2)s1)C(=O)O)N1CCOCC1 (stereo not drawn) [Example 2-359] | < 1 | < 0.1 | ≥ 1 | – | – | –

Compound | IC50 (aggrecanase-1; [1]) [µM] | IC50 (Recombinant Human MMP-13; [2]) [µM] | IC50 (MMP-1; [3]) [µM] | IC50 (aggrecanase-1; [4]) [µM] | IC50 (Recombinant Human MMP-13; [5]) [µM] | IC50 (MMP-1; [6]) [µM]
O=C(O)C1(NS(=O)(=O)c2ccc(-c3cc(C(F)(F)F)on3)s2)CC1c1cc(CO)on1 (stereo not drawn) [Example 2-317] | < 1 | < 1 | ≥ 1 | – | – | –
CN1CCC2C(c3ccccc31)C2(NS(=O)(=O)c1ccc(-c2ccc(Cl)cc2)s1)C(=O)O (stereo not drawn) [Example 2-430] | < 0.1 | < 0.1 | ≥ 1 | – | – | –
C[C@]1(c2ccccc2)C[C@@]1(NS(=O)(=O)c1ccc(-c2ccc(Cl)c(N)c2)s1)C(=O)O [Example 2-12, (1S,2R)-1-[5-(3-amino-4-chloro-phenyl)-thiophene-2-sulfonylamino]-2-methyl-2-phenyl-cyclopropanecarboxylic acid] | – | – | – | < 0.1 | < 0.1 | < 1
CC1[C@H](c2ccccc2)[C@]1(NS(=O)(=O)N1Cc2ccc(O)cc2C1)C(=O)O (stereo partly drawn) [Example 2-548] | ≥ 1 | ≥ 1 | ≥ 1 | – | – | –
CC1[C@H](c2ccccc2)[C@]1(NS(=O)(=O)c1ccc(-c2cc(C(F)(F)F)on2)s1)C(=O)NO (stereo partly drawn) [Example 2-323] | ≥ 1 | < 0.1 | ≥ 1 | – | – | –
CC(=O)c1ccc(S(=O)(=O)NC2(C(=O)O)CC2c2ccccc2)cc1 (stereo not drawn) [Example 2-80] | – | – | – | ≥ 10 | ≥ 10 | ≥ 10
Nc1cccc([C@H]2C[C@@]2(NS(=O)(=O)c2ccc(-c3ccc(Cl)cc3)s2)C(=O)O)c1 [Example 2-174] | – | – | – | < 0.1 | < 0.1 | ≥ 1
CN(C)c1cccc(C2CC2(NS(=O)(=O)c2ccc(-c3cc(C(F)(F)F)on3)s2)C(=O)O)c1 (stereo not drawn) [Example 2-228] | – | – | – | < 1 | < 1 | ≥ 1
Cc1cc(C2CC2(NS(=O)(=O)c2ccc(-c3cc(C(F)(F)F)on3)s2)C(=O)O)on1 (stereo not drawn) [Example 2-311] | < 1 | < 1 | ≥ 1 | – | – | –
O=C(O)[C@]1(NS(=O)(=O)c2ccc(-c3ccc(Cl)cc3)s2)C[C@@H]1c1ccccc1Br [Example 2-178] | – | – | – | < 0.1 | < 1 | ≥ 10
COC(=O)Cc1cccc(C2CC2(NS(=O)(=O)c2ccc(-c3cc(C(F)(F)F)on3)s2)C(=O)O)c1 (stereo not drawn) [Example 2-219] | – | – | – | < 1 | < 0.1 | ≥ 1
CC1[C@H](c2ccccc2)[C@]1(NS(=O)(=O)c1ccc(-c2cc(C(F)(F)F)on2)s1)C(N)=O (stereo partly drawn) [Example 2-296] | ≥ 1 | ≥ 1 | ≥ 10 | – | – | –
COc1ccc2[nH]c(-c3ccc(S(=O)(=O)N[C@@]4(C(=O)O)C(C)[C@@H]4c4ccccc4)s3)nc2c1 (stereo partly drawn) [Example 2-607] | ≥ 1 | < 0.1 | ≥ 1 | – | – | –
CCC1(c2ccccc2)CC1(NS(=O)(=O)c1ccc(-c2ccc(Cl)cc2)s1)C(=O)O (stereo not drawn) [Example 2-129] | – | – | – | < 1 | < 1 | ≥ 10
CC1[C@H](c2ccccc2)[C@]1(NS(=O)(=O)N1CCc2ccccc2C1)C(=O)O (stereo partly drawn) [Example 2-535] | ≥ 1 | ≥ 1 | ≥ 1 | – | – | –
O=C(O)C1(NS(=O)(=O)c2ccc(-c3ccc(Cl)cc3)cc2)CC1c1cccc(OCCn2ccnc2)c1 (stereo not drawn) [Example 1-83] | – | – | – | < 1 | < 0.1 | ≥ 1

Reference: US20080261994A1, “CYCLOPROPANE COMPOUNDS AND PHARMACEUTICAL USE THEREOF” (Japan Tobacco Inc., priority 2003, published 2008)
